Source: patent publication EP0908457B1, “3-(1,2-benzisothiazol- and isoxazol-5-Y1)-2,4(1H,3H)-pyrimidinedione or thione and 3-(1,2-benzisothiazol- and isoxazol-5-y1)-4(3H)-pyrimidinone or thione herbicidal agents” (BASF AKTIENGESELLSCHAFT, priority 1997, dated 1999)

Tests used:
[1] = tested on: Cyperus serotinus, Rottb.; assay: Preemergence weed control under flooded paddy conditions, CYPSE (Flatsedge); format: in vivo; settings: preemergence weeds; for herbicidal effect rating, CYPSE: rated three to four weeks after treatment; for CYPSE: herbicidal effect rating 0-9, three to four weeks after treatment; as to herbicidal effect rating, CYPSE: meaning of each grade not given here
Sagittaria pygmaea, L. = assay: Preemergence weed control under flooded paddy conditions, SAGPY (Arrowhead (Pygmaea)); format: in vivo; settings: flooded paddy; for herbicidal effect rating, SAGPY / SAGPY: preemergence weeds; for herbicidal effect rating, SAGPY / SAGPY herbicidal effect rating: rated three to four weeks after treatment; for SAGPY: herbicidal effect rating 0-9, three to four weeks after treatment; for SAGPY herbicidal effect rating: preemergence; as to herbicidal effect rating, SAGPY: meaning of each grade not given here
Cyperus iria = assay: Preemergence weed control under flooded paddy conditions, CYPIR (Rice Flatsedge); format: in vivo; settings: flooded paddy; for herbicidal effect rating, CYPIR / CYPIR: preemergence weeds; for herbicidal effect rating, CYPIR / CYPIR herbicidal effect rating: rated three to four weeks after treatment; for CYPIR: herbicidal effect rating 0-9, three to four weeks after treatment; for CYPIR herbicidal effect rating: preemergence; as to herbicidal effect rating, CYPIR: meaning of each grade not given here
[2] = tested on: Oryza sativa, (L.) Tebonnet; assay: Rice tolerance to post-transplant applications under flooded paddy conditions (Example 187), ORYSAT (Rice, Tebonnet); settings: for herbicidal effect rating ORYSAT / ORYSAT herbicidal effect rating: rated three to four weeks after treatment; for ORYSAT: herbicidal effect rating 0-9, three to four weeks after treatment
[3] = tested on: Echinochloa oryzoides (Ard.) Fritsch.; assay: Preemergence weed control under flooded paddy conditions, ECHORC (Watergrass (Calif.)); format: in vivo; settings: flooded paddy; for herbicidal effect rating, ECHORC / ECHORC: preemergence weeds; for herbicidal effect rating, ECHORC / ECHORC herbicidal effect rating: rated three to four weeks after treatment; for ECHORC: herbicidal effect rating 0-9, three to four weeks after treatment; for ECHORC herbicidal effect rating: preemergence; as to herbicidal effect rating, ECHORC: meaning of each grade not given here
[4] = tested on: Monochoria vaginalis, Presl.; assay: Preemergence weed control under flooded paddy conditions, MOOVA (Monochoria); format: in vivo; settings: preemergence, flooded paddy, rated three to four weeks after treatment

For Cn1c(C(F)(F)F)cc(=O)n(-c2ccc3snc(C(C)(Br)Br)c3c2)c1=O [Example 340, 2,4(1H,3H)-Pyrimidinedione, 3-[3-(1,1-dibromoethyl)-1,2-benzisothiazol-5-yl]-1-methyl-6-(trifluoromethyl)-], the “herbicidal effect rating, CYPSE” value ([1]; Rate 0.0320 kg/ha) was 3.0, the “herbicidal effect rating, CYPSE” value ([1]; Rate 0.0620 kg/ha) was 3.0 and the “herbicidal effect rating, CYPSE” value ([1]; Rate 0.1250 kg/ha) was 6.0. The “herbicidal effect rating, CYPSE” value ([1]; Rate 0.2500 kg/ha) was 7.0, the “herbicidal effect rating, SAGPY” value (Sagittaria pygmaea, L.; Rate 0.0320 kg/ha) was 4.0 and the “herbicidal effect rating, SAGPY” value (Sagittaria pygmaea, L.; Rate 0.0620 kg/ha) was 4.0. The “herbicidal effect rating, SAGPY” value (Sagittaria pygmaea, L.; Rate 0.1250 kg/ha) was 5.0, the “herbicidal effect rating, SAGPY” value (Sagittaria pygmaea, L.; Rate 0.2500 kg/ha) was 7.0 and the “herbicidal effect rating, CYPIR” value (Cyperus iria; Rate 0.0320 kg/ha) was 2.0. For the same compound, the “herbicidal effect rating, CYPIR” value (Cyperus iria; Rate 0.0620 kg/ha) was 5.0, the “herbicidal effect rating, CYPIR” value (Cyperus iria; Rate 0.1250 kg/ha) was 7.0 and the “herbicidal effect rating, CYPIR” value (Cyperus iria; Rate 0.2500 kg/ha) was 9.0. The “herbicidal effect rating ORYSAT” value ([2]; Rate 0.0320 kg/ha) was 5.0, the “herbicidal effect rating ORYSAT” value ([2]; Rate 0.0620 kg/ha) was 6.0 and the “herbicidal effect rating ORYSAT” value ([2]; Rate 0.1250 kg/ha) was 7.0. The “herbicidal effect rating ORYSAT” value ([2]; Rate 0.2500 kg/ha) was 9.0, the “herbicidal effect rating, ECHORC” value ([3]; Rate 0.0320 kg/ha) was 5.0 and the “herbicidal effect rating, ECHORC” value ([3]; Rate 0.0620 kg/ha) was 6.0. The “herbicidal effect rating, ECHORC” value ([3]; Rate 0.1250 kg/ha) was 9.0 and the “herbicidal effect rating, ECHORC” value ([3]; Rate 0.2500 kg/ha) was 9.0.

With Cn1c(C(F)(F)F)cc(=O)n(-c2ccc3snc(C(=O)CCl)c3c2)c1=O [Example 338, 2,4(1H,3H)-Pyrimidinedione, 3-[3-(chloroacetyl)-1,2-benzisothiazol-5-yl]-1-methyl-6-(trifluoromethyl)-] the “herbicidal effect rating, CYPSE” value ([1]; Rate 0.0320 kg/ha) was 0.0, the “herbicidal effect rating, CYPSE” value ([1]; Rate 0.0620 kg/ha) was 0.0 and the “herbicidal effect rating, CYPSE” value ([1]; Rate 0.1250 kg/ha) was 0.0. For the same compound, the “herbicidal effect rating, CYPSE” value ([1]; Rate 0.2500 kg/ha) was 5.0, the “herbicidal effect rating, SAGPY” value (Sagittaria pygmaea, L.; Rate 0.0320 kg/ha) was 0.0 and the “herbicidal effect rating, SAGPY” value (Sagittaria pygmaea, L.; Rate 0.0620 kg/ha) was 2.0. For the same compound, the “herbicidal effect rating, SAGPY” value (Sagittaria pygmaea, L.; Rate 0.1250 kg/ha) was 2.0, the “herbicidal effect rating, SAGPY” value (Sagittaria pygmaea, L.; Rate 0.2500 kg/ha) was 5.0 and the “herbicidal effect rating, CYPIR” value (Cyperus iria; Rate 0.0320 kg/ha) was 3.0. The “herbicidal effect rating, CYPIR” value (Cyperus iria; Rate 0.0620 kg/ha) was 3.0, the “herbicidal effect rating, CYPIR” value (Cyperus iria; Rate 0.1250 kg/ha) was 3.0 and the “herbicidal effect rating, CYPIR” value (Cyperus iria; Rate 0.2500 kg/ha) was 8.0. For the same compound, the “herbicidal effect rating ORYSAT” value ([2]; Rate 0.0320 kg/ha) was 0.0, the “herbicidal effect rating ORYSAT” value ([2]; Rate 0.0620 kg/ha) was 0.0 and the “herbicidal effect rating ORYSAT” value ([2]; Rate 0.1250 kg/ha) was 3.0. The “herbicidal effect rating ORYSAT” value ([2]; Rate 0.2500 kg/ha) was 6.0, the “herbicidal effect rating, ECHORC” value ([3]; Rate 0.0320 kg/ha) was 2.0 and the “herbicidal effect rating, ECHORC” value ([3]; Rate 0.0620 kg/ha) was 2.0. The “herbicidal effect rating, ECHORC” value ([3]; Rate 0.1250 kg/ha) was 4.0 and the “herbicidal effect rating, ECHORC” value ([3]; Rate 0.2500 kg/ha) was 9.0.

For CC(c1ccccc1)S(=O)(=O)NC(=O)c1nsc2ccc(-n3c(=O)cc(C(F)(F)F)n(C)c3=O)cc12 (stereo not drawn) [Example 427, 1,2-Benzisothiazole-3-carboxamide, 5-[3,6-dihydro-3-methyl-2,6-dioxo-4-(trifluoromethyl)-1(2H)-pyrimidinyl]-N-[(alpha-methylbenzyl)-sulfonyl]-], the CYPSE ([1]; 0.0320 kg/ha) was 0.0, the CYPSE ([1]; 0.0620 kg/ha) was 0.0 and the CYPSE ([1]; 0.2500 kg/ha) was 4.0. The SAGPY (Sagittaria pygmaea, L.; 0.0320 kg/ha) was 4.0, the SAGPY (Sagittaria pygmaea, L.; 0.0620 kg/ha) was 5.0 and the SAGPY (Sagittaria pygmaea, L.; 0.1250 kg/ha) was 6.0. For the same compound, the SAGPY (Sagittaria pygmaea, L.; 0.2500 kg/ha) was 9.0, the CYPIR (Cyperus iria; 0.0320 kg/ha) was 7.0 and the CYPIR (Cyperus iria; 0.0620 kg/ha) was 7.0. It also gave a CYPIR (Cyperus iria; 0.1250 kg/ha) of 7.0, a CYPIR (Cyperus iria; 0.2500 kg/ha) of 9.0 and an ORYSAT ([2]; 0.0320 kg/ha) of 0.0. It also gave an ORYSAT ([2]; 0.0620 kg/ha) of 0.0, an ORYSAT ([2]; 0.1250 kg/ha) of 1.0 and an ORYSAT ([2]; 0.2500 kg/ha) of 3.0. The ECHORC ([3]; 0.0320 kg/ha) was 7.0, the ECHORC ([3]; 0.0620 kg/ha) was 7.0 and the ECHORC ([3]; 0.1250 kg/ha) was 9.0. For the same compound, the ECHORC ([3]; 0.2500 kg/ha) was 9.0.

Cn1c(C(F)(F)F)cc(=O)n(-c2ccc3snc(COCC(=O)NS(C)(=O)=O)c3c2)c1=O [Example 294, Acetamide, 2-{{5-[3,6-dihydro-3-methyl-2,6-dioxo-4-(trifluoromethyl)-1(2H)-pyrimidinyl]-1,2-benzisothiazol-3-yl}methoxy}-N-(methylsulfonyl)-] was tested, and the “MOOVA herbicidal effect rating” value ([4]; Rate 0.0320 kg/ha) was 9.0, the “MOOVA herbicidal effect rating” value ([4]; Rate 0.0620 kg/ha) was 9.0 and the “MOOVA herbicidal effect rating” value ([4]; Rate 0.1250 kg/ha) was 9.0. For the same compound, the “MOOVA herbicidal effect rating” value ([4]; Rate 0.2500 kg/ha) was 9.0, the “SAGPY herbicidal effect rating” value (Sagittaria pygmaea, L.; Rate 0.0320 kg/ha) was 0.0 and the “SAGPY herbicidal effect rating” value (Sagittaria pygmaea, L.; Rate 0.0620 kg/ha) was 0.0. The “SAGPY herbicidal effect rating” value (Sagittaria pygmaea, L.; Rate 0.1250 kg/ha) was 0.0, the “SAGPY herbicidal effect rating” value (Sagittaria pygmaea, L.; Rate 0.2500 kg/ha) was 0.0 and the “CYPIR herbicidal effect rating” value (Cyperus iria; Rate 0.0320 kg/ha) was 0.0. The “CYPIR herbicidal effect rating” value (Cyperus iria; Rate 0.0620 kg/ha) was 0.0, the “CYPIR herbicidal effect rating” value (Cyperus iria; Rate 0.1250 kg/ha) was 3.0 and the “CYPIR herbicidal effect rating” value (Cyperus iria; Rate 0.2500 kg/ha) was 9.0. For the same compound, the “ORYSAT herbicidal effect rating” value ([2]; Rate 0.0320 kg/ha) was 0.0, the “ORYSAT herbicidal effect rating” value ([2]; Rate 0.0620 kg/ha) was 0.0 and the “ORYSAT herbicidal effect rating” value ([2]; Rate 0.1250 kg/ha) was 0.0. The “ORYSAT herbicidal effect rating” value ([2]; Rate 0.2500 kg/ha) was 0.0, the “ECHORC herbicidal effect rating” value ([3]; Rate 0.0320 kg/ha) was 0.0 and the “ECHORC herbicidal effect rating” value ([3]; Rate 0.0620 kg/ha) was 0.0. For the same compound, the “ECHORC herbicidal effect rating” value ([3]; Rate 0.1250 kg/ha) was 0.0 and the “ECHORC herbicidal effect rating” value ([3]; Rate 0.2500 kg/ha) was 0.0.
